Experimental data as given in patent US20060292158A1, “Method for the treatment of cancer using a novel pharmaceutical composition containing at least one dolastatin 10 derivative” (priority 2004, published 2006).
Like-named read-outs stand apart in the source and are kept apart here.

Legend:
[1] = test system: NCI-H460 human large cell lung carcinoma xenograft; experiment: Antitumor activity in NCI-H460 subcutaneous xenograft in athymic nude mice, combination with cisplatin (Example 4); format: in vivo; settings: day 12
Procedure: The NCI-H460 human large cell lung carcinoma cell line was purchased from American Type Culture Collection (MD, U.S.A.). The cells were cultured in RPMI-1640 medium (cat. # R8758, lot 12K2310, exp 01/03; lot 82K2497, exp 08/03; Sigma-Aldrich corporation, MO, U.S.A.) supplemented with 10% (v/v) fetal bovine serum (cat. # 047115, lot # 31300124; Roche Diagnostics KK, Tokyo, Japan).
Sixty of 5-week-old male athymic nude mice (BALB/c nu/nu) were purchased from Charles River Japan, Inc. (Yokohama, Japan). All mice were kept for 8 days in the animal facility of Kamakura Research Laboratories of Chugai Pharmaceutical Co., Ltd. before subjection to the experiment.
The title compound was synthesized at Kamakura Research Laboratories of Chugai Pharmaceutical Co., Ltd. CDDP (Randa™, lot # 924150) was obtained from Nippon Kayaku Co., Ltd. (Tokyo, Japan). The title compound was dissolved in dimethyl sulfoxide (DMSO) and diluted into 2.5 % DMSO solution with saline (for Injection; Ohtsuka Pharmaceutical Industry Co., Ltd., Tokushima, Japan) at the date of administration. CDDP was diluted with saline at the date of administration.
The in vivo evaluation procedure for anticancer drugs was based on the methods described by Plowman, et al. (1997) for xenograft models. See, “Anticancer Drug Development Guide: Preclinical Screening, Clinical Trials, and Approval, Teicher B (ed) pp. 101-125, specifically Chap. 6, “Human Tumor Xenograft Models in NCI Drug Development”, hereby incorporated by reference. A single cell suspension of NCI-H460 (5.6×10^6 cells per mouse) was inoculated subcutaneously into the right flank of each mouse. The tumor volume was estimated by using the equation ab^2/2, where a and b represent tumor length and width, respectively. Mice bearing tumors of between 150 and 245 mm^3 were selected on day 7 after tumor inoculation and were randomly divided into 8 groups, consisting of 5 mice each. Mean tumor volume and body weight of the selected mice were 187 mm3 and 24.3 g, respectively. Drug administration was initiated after mice were divided into groups. The title compound (2 mg/kg or 3 mg/kg), CDDP (5 mg/kg or 6.7 mg/kg) and each vehicle were administered intravenously. Tumor volume and body weight of each mouse were measured twice a week. […] Tumor growth inhibition was calculated using the equation (1-ΔT/ΔC)×100, where ΔT represents the difference in tumor volume from the initial treatment date of the treated group and ΔC represents the difference in tumor volume from the initial treatment date of the vehicle group.

[2] = test system: HT-29 human colorectal adenocarcinoma xenograft; format: in vivo; settings: day 31
Procedure: The HT-29 human colorectal adenocarcinoma cell line was purchased from American Type Culture Collection (Rockville, MD, U.S.A.). The cells were cultured in McCoy's 5a medium (Sigma-Aldrich Corporation, MO, U.S.A.) supplemented with 10% (v/v) fetal bovine serum (Roche Diagnostics KK, Tokyo, Japan).
Sixty of 5-week-old male athymic nude mice (BALB/c nu/nu) were purchased from Charles River Japan, Inc. (Yokohama, Japan). All mice were kept for 9 days in the animal facility of Kamakura Research Laboratories of Chugai Pharmaceutical Co., Ltd. before subjection to the experiment.
Capecitabine was dissolved by the 40 milli mol/L citrate buffered-5% Gum arabic solution (pH 6.0; Chugai Pharmaceutical Co., Ltd.).
The in vivo evaluation procedure for anticancer drugs was based on the methods described by Plowman, et al. (1997) for xenograft models. See, “Anticancer Drug Development Guide: Preclinical Screening, Clinical Trials, and Approval, Teicher B (ed) pp. 101-125, specifically Chap. 6, “Human Tumor Xenograft Models in NCI Drug Development”, hereby incorporated by reference. A single cell suspension of HT-29 (1.1×10^7 cells per mouse) was inoculated subcutaneously into the right flank of each mouse. The tumor volume was estimated by using the equation ab^2/2, where a and b represent tumor length and width, respectively. Mice bearing tumors of between 172 and 282 mm^3 were selected on day 10 after tumor inoculation and were randomly divided into 7 groups, consisting of 6 mice each. Mean tumor volume and body weight of the selected mice were 217 mm^3 and 25.0 g respectively. Drug administration was initiated after mice were divided into groups. […] Capecitabine (359 mg/kg or 539 mg/kg) and its vehicle were administered orally. Tumor volume and body weight of each mouse were measured twice a week. […] Tumor growth inhibition was calculated using the equation (1-ΔT/ΔC)×100, where ΔT represents the difference in tumor volume from the initial treatment date of the treated group and ΔC represents the difference in tumor volume from the initial treatment date of the vehicle group.

[3] = Maximum tolerated dose (neither lethality nor more than 20% body weight loss) in mice; settings: BALB/c nu/nu (athymic nude), mouse, in vivo, dose with neither lethality nor more than 20% body weight loss
Text: The in vivo evaluation procedure for anticancer drugs was based on the methods described by Plowman, et al. (1997) for xenograft models. See, “Anticancer Drug Development Guide: Preclinical Screening, Clinical Trials, and Approval, Teicher B (ed) pp. 101-125, specifically Chap. 6, “Human Tumor Xenograft Models in NCI Drug Development”, hereby incorporated by reference.
See, “Anticancer Drug Development Guide: Preclinical Screening, Clinical Trials, and Approval, Teicher B (ed) pp. 101-125, specifically Chap. 6, “Human Tumor Xenograft Models in NCI Drug Development”, hereby incorporated by reference.
The in vivo evaluation procedure for anticancer drugs was based on the methods described by Plowman, et al. (1997) for xenograft models. See, “Anticancer Drug Development Guide: Preclinical Screening, Clinical Trials, and Approval, Teicher B (ed) pp. 101-125, specifically Chap.

[4] = 3 mg/kg (1/2 MTD) i.v. weekly x3

With `CC[C@H](C)[C@@H]([C@@H](CC(=O)N1CCC[C@H]1[C@H](SC)[C@@H](C)C(=O)N(C)CCc1cccc(O)c1)OC)N(C)C(=O)[C@@H](NC(=O)[C@H](C(C)C)N(C)C)C(C)C` [compound of formula (I-A), N-[1-({1-sec-Butyl-4-[2-(2-{[2-(3-hydroxy-phenyl)-ethyl]-methyl-carbamoyl}-1-methylsulfanyl-propyl)-pyrrolidin-1-yl]-2-methoxy-4-oxo-butyl}-methyl-carbamoyl)-2-methyl-propyl]-2-dimethylamino-3-methyl-butyramide] the “reduction of tumor growth” value ([1]; 2 mg/kg (1/3 MTD) i.v. weekly x3) was 45%, the “reduction of tumor growth” value [1, 4] was 93% and the “reduction of tumor growth” value [2, 4] was 76%. For the same molecule, the “reduction of tumor growth” value ([2]; 4 mg/kg (2/3 MTD) i.v. weekly x3) was 101% and the MTD [3] was 6 mg/kg.
